# Patent US9278958B2, “Anti-cancer compounds” (KATHOLIEKE UNIVERSITEIT LEUVEN, priority 2012, dated 2016)
# Key:
# [1] = tested on: CEM cells; test: Cytostatic assay, CEM; assay type: cell-based; details: Homo sapiens, CCRF-CEM; Table 2; read-out: Cytostatic activity (μM) CEM
# How it was run: (§1)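 A density of 5-7.5×10^4 cells per well is treated with compound. Incubation lasts 48 h to 96 h according to cell type, in humidified, CO2-controlled conditions at 37° C, after which cells are enumerated electronically.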
# [2] = tested on: Molt4/C8 cells; test: Cytostatic assay, Molt4/C8; assay type: cell-based; details: Table 2
# Procedure: (§2) To each well of a 96-well microtiter plate were added 5-7.5×10^4 cells and a given amount of the test compound. The cells were allowed to proliferate for 48 h to 96 h (depending on the nature of the cell line) at 37° C. in a humidified CO2-controlled atmosphere. At the end of the incubation period, the cells were counted in a Coulter Counter (Coulter Electronics Ltd, Harpenden Herts, United Kingdom).
# [3] = tested on: Sup T1 cells; test: Cytostatic assay, Sup T1; assay type: cell-based; details: Homo sapiens, Table 2, read-out: Cytostatic activity (μM) Sup T 1
# Procedure: as §2
# [4] = tested on: MT-2 cells; test: Cytostatic assay, MT-2; assay type: cell-based; details: Homo sapiens, MT2; Table 2
# Procedure: as §2
# [5] = tested on: C8166 cells; test: Cytostatic assay, C8166; assay type: cell-based; details: Homo sapiens, Table 2
# Procedure: as §2
# [6] = tested on: HUT-78 cells; test: Cytostatic assay, HUT-78; assay type: cell-based; details: Homo sapiens, HuT78; Table 2
# Procedure: as §2
# [7] = tested on: MT-4 cells; test: Cytostatic assay, MT-4; assay type: cell-based; details: Homo sapiens, MT4; Table 2
# Procedure: as §2
# [8] = tested on: HL60, human leukemia cells; test: Cytostatic assay, HL-60; assay type: cell-based; details: Table 2
# Procedure: as §2
# [9] = tested on: U937, human monocytic cells; test: Cytostatic assay, U937; assay type: cell-based; details: U-937, Table 2
# Procedure: as §2
# [10] = tested on: THP-1, human monocytic cells; test: Cytostatic assay, THP-1; assay type: cell-based; details: Table 2
# Procedure: as §2
# [11] = tested on: Raji, human B-lymphoma cells; test: Cytostatic assay, Raji; assay type: cell-based; details: Table 2
# Procedure: as §2
# [12] = tested on: L1210 cells; test: Cytostatic assay, L1210; assay type: cell-based; details: Mus musculus, Table 2
# Procedure: as §2
# [13] = tested on: OST TK- osteosarcoma cells; test: Cytostatic assay, OST TK-; assay type: cell-based; details: Homo sapiens; Table 3
# Procedure: as §2
# [14] = tested on: MCF-7 mammary carcinoma cells; test: Cytostatic assay, MCF-7; assay type: cell-based; details: Homo sapiens, MCF7; Table 3
# Procedure: as §2
# [15] = tested on: FM3A mammary carcinoma cells; test: Cytostatic assay, FM3A; assay type: cell-based, murine; details: Mus musculus, Table 3
# Procedure: as §2
# [16] = tested on: HeLa cervix carcinoma cells; test: Cytostatic assay, HeLa; assay type: cell-based, human; details: Homo sapiens; Table 3; read-out: Cytostatic activity (μM) Hela
# How it was run: as §1
# [17] = tested on: Caki-1 kidney carcinoma cells; test: Cytostatic assay, Caki-1; assay type: cell-based; details: Homo sapiens, Table 3
# Procedure: as §2
# [18] = tested on: Caki-2 kidney carcinoma cells; test: Cytostatic assay, Caki-2; assay type: cell-based; details: Homo sapiens, Table 3
# Procedure: as §2
# [19] = tested on: 293T embryonic kidney cells; test: Cytostatic assay, 293T; assay type: cell-based; details: Homo sapiens, HEK-293T; Table 3
# Procedure: as §2
# [20] = tested on: HT29 colorectal carcinoma cells; test: Cytostatic assay, HT29; assay type: cell-based; details: Homo sapiens, HT-29; Table 3
# Procedure: as §2
# [21] = tested on: U87 glioma cells; test: Cytostatic assay, U87; assay type: cell-based; details: Homo sapiens, U-87 MG; Table 3
# Procedure: as §2
# [22] = tested on: HEL embryonic lung fibroblast cells; test: Cytostatic assay, HEL; assay type: cell-based; details: Homo sapiens, Table 3
# Procedure: as §2
# [23] = tested on: BAEC aortic endothelial cells; test: Cytostatic assay, BAEC; assay type: cell-based, bovine; details: Bos taurus, Table 3
# Procedure: as §2
# [24] = tested on: PC3 (rega) prostate cancer cells; test: Cytostatic assay, PC3 (rega); assay type: cell-based; details: Table 4
# Procedure: as §2
# [25] = tested on: BPH-1 (UZ); test: Cytostatic assay, BPH-1 (UZ); assay type: cell-based; details: Homo sapiens, Table 4
# Procedure: as §2
# [26] = tested on: DU145 (UZ) prostate cancer cells; test: Cytostatic assay, DU145 (UZ); assay type: cell-based; details: Homo sapiens, DU-145; Table 4
# Procedure: as §2
# [27] = tested on: PC-3 (UZ) prostate cancer cells; test: Cytostatic assay, PC-3 (UZ); assay type: cell-based; details: Table 4
# Procedure: as §2
# [28] = tested on: LNCaP (UZ) prostate cancer cells; test: Cytostatic assay, LNCaP (UZ); assay type: cell-based; details: Homo sapiens, Table 4
# Procedure: as §2
# [29] = tested on: PNT1A (UZ) prostate cells; test: Cytostatic assay, PNT1A (UZ); assay type: cell-based; details: Homo sapiens, Table 4
# Procedure: as §2
# [30] = tested on: 22Rv1 (UZ) prostate cancer cells; test: Cytostatic assay, 22Rv1 (UZ); assay type: cell-based; details: Homo sapiens, Table 4
# Procedure: as §2
# [31] = tested on: PLC/PRF/5 hepatoma cells; test: Cytostatic assay, PLC/PRF/5; assay type: cell-based; details: Homo sapiens, Table 4
# Procedure: as §2
# [32] = tested on: HepG2C3A hepatoma cells; test: Cytostatic assay, HepG2C3A; assay type: cell-based; details: Homo sapiens, HepG2/C3A; Table 4
# Procedure: as §2
# [33] = tested on: Huh-7 hepatoma cells; test: Cytostatic assay, Huh-7; assay type: cell-based; details: Homo sapiens, Table 4
# Procedure: as §2
# [34] = tested on: DNA synthesis in CEM cells; test: Antimetabolic activity assay, [CH3-3H]dThd incorporation (DNA synthesis), CEM; assay type: cell-based; details: Homo sapiens, CCRF-CEM, incorporation into TCA-insoluble material
# Procedure: (§3) Radiolabeled precursors of DNA synthesis ([^3H-methyl]dThd), RNA synthesis ([5-^3H]Urd), and protein synthesis ([4,5-^3H]leu) were added to 10^5 CEM cell cultures in the 200 μl-wells of a microtiter plate at 1 μCi for each precursor in the presence of varying concentrations of the test compounds (5-fold dilution series). The cells were allowed to proliferate for 20 hrs at 37° C. in a humidified, CO2-controlled atmosphere. At the end of the incubation period, the contents of the wells were brought onto 25-mm glass fiber filters and further processed for measurement of acid-insoluble radioactivity.
# [35] = tested on: DNA synthesis in Raji cells; test: Antimetabolic activity assay, [CH3-3H]dThd incorporation (DNA synthesis), Raji; assay type: cell-based; details: Homo sapiens, incorporation into TCA-insoluble material
# Procedure: [The procedure below names another cell line; the source lists this cell line under the same test.] as §3
# [36] = tested on: RNA synthesis in CEM cells; test: Antimetabolic activity assay, [5-3H]uridine incorporation (RNA synthesis), CEM; assay type: cell-based; details: Homo sapiens, CCRF-CEM, incorporation into TCA-insoluble material
# Procedure: as §3
# [37] = tested on: RNA synthesis in Raji cells; test: Antimetabolic activity assay, [5-3H]uridine incorporation (RNA synthesis), Raji; assay type: cell-based; details: Homo sapiens, incorporation into TCA-insoluble material
# Procedure: [The procedure below names another cell line; the source lists this cell line under the same test.] as §3
# [38] = tested on: protein synthesis in CEM cells; test: Antimetabolic activity assay, [4,5-3H]leucine incorporation (protein synthesis), CEM; assay type: cell-based; details: Homo sapiens, CCRF-CEM, incorporation into TCA-insoluble material
# Procedure: as §3
# [39] = tested on: protein synthesis in Raji cells; test: Antimetabolic activity assay, [4,5-3H]leucine incorporation (protein synthesis), Raji; assay type: cell-based; details: Homo sapiens, incorporation into TCA-insoluble material
# Procedure: [The procedure below names another cell line; the source lists this cell line under the same test.] as §3
smiles,measurement,setting,value
"CCOC(=O)c1cc(CCc2ccccc2OC)sc1N [TR542, 2-Amino-5-[2-(2-methoxy-phenyl)-ethyl]-thiophene-3-carboxylic acid ethyl ester]",IC50,[1],20 ± 4 µM
same,IC50,[2],6.8 µM
same,IC50,[3],23 ± 2.1 µM
same,IC50,[4],79 ± 17 µM
same,IC50,[5],143 ± 32 µM
same,IC50,[6],107 ± 70 µM
same,IC50,[7],41 ± 5.7 µM
same,IC50,[8],11 ± 2.2 µM
same,IC50,[9],80 ± 5.7 µM
same,IC50,[10],31 ± 13 µM
same,IC50,[11],55 ± 12 µM
same,IC50,[12],40 µM
same,IC50,[13],41 ± 0.71 µM
same,IC50,[14],60 ± 0.7 µM
same,IC50,[15],53 ± 7 µM
same,IC50,[16],45 ± 6 µM
same,IC50,[17],62 ± 12 µM
same,IC50,[18],16 ± 10 µM
same,IC50,[19],> 100 µM
same,IC50,[20],> 100 µM
same,IC50,[21],> 100 µM
same,IC50,[22],43 ± 4.9 µM
same,IC50,[23],> 100 µM
same,IC50,[24],8.6 ± 3.4 µM
same,IC50,[25],74 ± 4.2 µM
same,IC50,[26],34 ± 7.1 µM
same,IC50,[27],8.5 ± 3.5 µM
same,IC50,[28],3.8 ± 2.9 µM
same,IC50,[29],45 µM
same,IC50,[30],33 ± 0.71 µM
same,IC50,[31],39 ± 5.7 µM
same,IC50,[32],30 ± 0.71 µM
same,IC50,[33],28 ± 17 µM
same,IC50,[34],68 ± 14 µM
same,IC50,[35],≥ 100 µM
same,IC50,[36],39 ± 32 µM
same,IC50,[37],≥ 100 µM
same,IC50,[38],23 ± 14 µM
same,IC50,[39],94 ± 7 µM
